Measurements from article PMC7466635, “Identification of Quinazolinone Analogs Targeting CDK5 Kinase Activity and Glioblastoma Cell Proliferation” (Frontiers in Chemistry, 2020).
Like-named read-outs stand apart in the source and are kept apart here.

Assays:
[1] = target: T1, CDK5 (Homo sapiens, UniProt Q00535); assay: CDKACT5-Cy5 fluorescent kinase activity biosensor with U87 cell extract; residual activity at […], IC50 not fittable; type: cell-based; details: U-87 MG
[2] = target: T1, CDK5; assay: biochemical
[3] = target: T1, CDK5; assay: biochemical; remark: listed apart in the source

T1 sequence (Q00535 whole entry): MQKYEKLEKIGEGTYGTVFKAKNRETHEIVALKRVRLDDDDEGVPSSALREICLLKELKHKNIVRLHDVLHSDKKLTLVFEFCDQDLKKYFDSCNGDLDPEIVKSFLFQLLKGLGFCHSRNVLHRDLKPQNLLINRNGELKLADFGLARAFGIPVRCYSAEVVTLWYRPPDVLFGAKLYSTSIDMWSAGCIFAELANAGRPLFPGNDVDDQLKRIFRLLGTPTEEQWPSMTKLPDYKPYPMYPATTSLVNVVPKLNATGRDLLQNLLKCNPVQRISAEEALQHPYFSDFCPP
T1 sequence (Q15078 2-307 partner): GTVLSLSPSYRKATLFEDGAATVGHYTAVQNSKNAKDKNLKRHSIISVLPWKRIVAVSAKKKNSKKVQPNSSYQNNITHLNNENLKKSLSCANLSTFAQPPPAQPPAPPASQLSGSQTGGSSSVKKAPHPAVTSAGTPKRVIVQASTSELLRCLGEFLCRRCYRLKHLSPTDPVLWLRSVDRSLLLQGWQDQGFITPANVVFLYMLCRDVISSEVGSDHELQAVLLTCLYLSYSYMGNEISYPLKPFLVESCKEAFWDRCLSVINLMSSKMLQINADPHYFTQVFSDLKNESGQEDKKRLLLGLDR

Structure (SMILES)	IC50 [2]	IC50 [3]	further results
Nc1ccc2[nH]c(SCc3nc4ccccc4c(=O)n3-c3cccc(C(F)(F)F)c3)nc2c1 [5a, JMV5798]			activity at 100 µM [1]: 40.2 ± 2.4%
Nc1ccc2[nH]c(SCc3nc4ccccc4c(=O)n3-c3ccccc3)nc2c1 [5d, JMV5800]	8.29 ± 3.56 µM		
Nc1ccc2[nH]c(SCc3nc4ccccc4c(=O)n3-c3ccccc3Br)nc2c1 [5j, JMV5886]		24.4 ± 32.5 µM	
Nc1ccc2[nH]c(SCc3nc4ccccc4c(=O)n3-c3ccc(Br)cc3)nc2c1 [5l, JMV5889]		28.7 ± 51.2 µM	
Nc1ccc2[nH]c(SCc3nc4ccccc4c(=O)n3-c3cccc(Cl)c3)nc2c1 [5m, JMV5884]	7.6 ± 3.8 µM		
Cc1ccc2c(=O)n(-c3ccccc3)c(CSc3nc4cc(N)ccc4[nH]3)nc2c1 [5p, JMV5735]		9.35 ± 11.1 µM	
